Where “and” joins values, the source holds several entries; their conditions need not be identical. Identical values can stand only once.
Key:
[1] = In vivo biodistribution in mice; parameters: species or system normal CD-1 male mice; details: for bone to blood ratio / bone to muscle ratio / Biodistribution: Blood / Biodistribution: Bone / Biodistribution: Brain / Biodistribution: Heart / Biodistribution: Kidney / Biodistribution: Liver / Biodistribution: Lung / Biodistribution: Muscle / Biodistribution: Pancreas / Biodistribution: Skin / Biodistribution: Spleen: iv
Method: Biodistribution experiments were performed by intravenously administering ^68Ga labeled 1a-h, 2, 3, BPAMD, and [^18F]NaF into normal, healthy male CD-1 mice (25-30 g). The injection activity was 20-30 μCi/animal. […] Organs of interest were harvested, weighed, and counts of radioactivity were measured by a gamma counter. The biodistribution of each sample was calculated as a percentage of the injected dose per gram of wet tissue weight (% ID/g). Tibia and femur bones were harvested and counted as bone samples.

[2] = In vitro binding to hydroxyapatite; details: 20 mg hydroxyapatite in saline, 10 min at room temperature
Method: Hydroxyapatite (20 mg, Sigma-Aldrich, reagent grade powder) was incubated in isotonic saline (1 mL) for 24 h. Subsequently, either ^68Ga labeled 1a-h, 2, 3, BPAMD, or [^18F]NaF (1 μCi) was added to the hydroxyapatite suspension. After vortexing for 10 seconds, the suspension was incubated for 10 min at room temperature. The samples were then centrifuged at 10,000 rpm for 3 min and the supernatant was removed. The hydroxyapatite fraction was washed twice with saline (1 mL). Radioactivity in the combined supernatants and the hydroxyapatite fraction was measured using a gamma counter. The proportion of the ^68Ga complex binding to hydroxyapatite was determined as percent of ^68Ga absorbed to hydroxyapatite.

O=C([O-])CN(CCN(CC(=O)[O-])Cc1cc(CCC(=O)NC(P(=O)(O)O)P(=O)(O)O)ccc1[O-])Cc1cc(CCC(=O)NCCNC(=O)CN2CCN(CC(=O)O)CCN(CC(=O)O)CCN(CC(=O)O)CC2)ccc1[O-].[68Ga+3] [[^68Ga]1h]
bone to blood ratio ([1]; 2 min): 0.9
bone to muscle ratio ([1]; 2 min): 4.3
Biodistribution: Blood ([1]; 2 min post injection): 9.69 ± 1.49 % dose/g
Biodistribution: Bone ([1]; 2 min post injection): 8.31 ± 0.84 % dose/g
Biodistribution: Brain ([1]; 2 min post injection): 0.24 ± 0.03 % dose/g
Biodistribution: Heart ([1]; 2 min post injection): 3.10 ± 0.35 % dose/g
Biodistribution: Kidney ([1]; 2 min post injection): 18.2 ± 1.65 % dose/g
Biodistribution: Liver ([1]; 2 min post injection): 1.99 ± 0.29 % dose/g
Biodistribution: Lung ([1]; 2 min post injection): 4.35 ± 0.52 % dose/g
Biodistribution: Muscle ([1]; 2 min post injection): 1.92 ± 0.14 % dose/g
Biodistribution: Pancreas ([1]; 2 min post injection): 1.48 ± 0.27 % dose/g
Biodistribution: Skin ([1]; 2 min post injection): 2.31 ± 0.25 % dose/g
Biodistribution: Spleen ([1]; 2 min post injection): 1.91 ± 0.48 % dose/g
bone to blood ratio ([1]; 30 min): 27
bone to muscle ratio ([1]; 30 min): 85
Biodistribution: Blood ([1]; 30 min (0.5 hr) post injection): 0.45 ± 0.07 % dose/g
Biodistribution: Bone ([1]; 30 min (0.5 hr) post injection): 12.1 ± 0.84 % dose/g
Biodistribution: Brain ([1]; 30 min (0.5 hr) post injection): 0.02 ± 0.01 % dose/g
Biodistribution: Heart ([1]; 30 min (0.5 hr) post injection): 0.24 ± 0.12 % dose/g
Biodistribution: Kidney ([1]; 30 min (0.5 hr) post injection): 2.07 ± 0.62 % dose/g
Biodistribution: Liver ([1]; 30 min (0.5 hr) post injection): 0.15 ± 0.05 % dose/g
Biodistribution: Lung ([1]; 30 min (0.5 hr) post injection): 0.31 ± 0.05 % dose/g
Biodistribution: Muscle ([1]; 30 min (0.5 hr) post injection): 0.14 ± 0.04 % dose/g
Biodistribution: Pancreas ([1]; 30 min (0.5 hr) post injection): 0.09 ± 0.03 % dose/g
Biodistribution: Skin ([1]; 30 min (0.5 hr) post injection): 0.39 ± 0.13 % dose/g
Biodistribution: Spleen ([1]; 30 min (0.5 hr) post injection): 0.13 ± 0.03 % dose/g
bone to blood ratio ([1]; 60 min): 112
bone to muscle ratio ([1]; 60 min): 233
Biodistribution: Blood ([1]; 60 min (1 hr) post injection): 0.11 ± 0.05 % dose/g
Biodistribution: Bone ([1]; 60 min (1 hr) post injection): 11.9±1.3 % dose/g and 11.9 ± 1.31 % dose/g
Biodistribution: Brain ([1]; 60 min (1 hr) post injection): 0.01 ± 0.00 % dose/g
Biodistribution: Heart ([1]; 60 min (1 hr) post injection): 0.08 ± 0.01 % dose/g
Biodistribution: Kidney ([1]; 60 min (1 hr) post injection): 1.13 ± 0.08 % dose/g
Biodistribution: Liver ([1]; 60 min (1 hr) post injection): 0.07 ± 0.01 % dose/g
Biodistribution: Lung ([1]; 60 min (1 hr) post injection): 0.14 ± 0.03 % dose/g
Biodistribution: Muscle ([1]; 60 min (1 hr) post injection): 0.05 ± 0.01 % dose/g
Biodistribution: Pancreas ([1]; 60 min (1 hr) post injection): 0.05 ± 0.02 % dose/g
Biodistribution: Skin ([1]; 60 min (1 hr) post injection): 0.11 ± 0.02 % dose/g
Biodistribution: Spleen ([1]; 60 min (1 hr) post injection): 0.07 ± 0.01 % dose/g
bone to blood ratio ([1]; 120 min): 305
bone to muscle ratio ([1]; 120 min): 383
Biodistribution: Blood ([1]; 120 min post injection): 0.04 ± 0.01 % dose/g
Biodistribution: Bone ([1]; 120 min post injection): 12.0 ± 0.82 % dose/g
Biodistribution: Brain ([1]; 120 min post injection): 0.01 ± 0.01 % dose/g
Biodistribution: Heart ([1]; 120 min post injection): 0.05 ± 0.01 % dose/g
Biodistribution: Kidney ([1]; 120 min post injection): 1.67 ± 0.54 % dose/g
Biodistribution: Liver ([1]; 120 min post injection): 0.09 ± 0.04 % dose/g
Biodistribution: Lung ([1]; 120 min post injection): 0.10 ± 0.01 % dose/g
Biodistribution: Muscle ([1]; 120 min post injection): 0.03 ± 0.00 % dose/g
Biodistribution: Pancreas ([1]; 120 min post injection): 0.04 ± 0.01 % dose/g
Biodistribution: Skin ([1]; 120 min post injection): 0.07 ± 0.01 % dose/g
Biodistribution: Spleen ([1]; 120 min post injection): 0.07 ± 0.01 % dose/g
Biodistribution result in words (organ uptake, retention, excretion) ([1]; normal mice after iv injection): excellent bone uptake and fast kidney excretion
Hydroxyapatite Binding (%) [2]: 96.7 ± 0.9%

O=C([O-])CN(CCN(CC(=O)[O-])Cc1cc(CCC(=O)NC(P(=O)(O)O)P(=O)(O)O)ccc1[O-])Cc1cc(CCC(=O)NC2C(O)OC(CO)C(O)C2O)ccc1[O-].[68Ga+3] (centres unmarked) [[^68Ga]1b]
bone to blood ratio ([1]; 2 min): 0.9
bone to muscle ratio ([1]; 2 min): 4.7
Biodistribution: Blood ([1]; 2 min post injection): 9.22 ± 0.83 % dose/g
Biodistribution: Bone ([1]; 2 min post injection): 8.34 ± 0.88 % dose/g
Biodistribution: Brain ([1]; 2 min post injection): 0.20 ± 0.04 % dose/g
Biodistribution: Heart ([1]; 2 min post injection): 3.01 ± 0.23 % dose/g
Biodistribution: Kidney ([1]; 2 min post injection): 18.5 ± 2.45 % dose/g
Biodistribution: Liver ([1]; 2 min post injection): 2.58 ± 0.22 % dose/g
Biodistribution: Lung ([1]; 2 min post injection): 5.11 ± 0.28 % dose/g
Biodistribution: Muscle ([1]; 2 min post injection): 1.79 ± 0.28 % dose/g
Biodistribution: Pancreas ([1]; 2 min post injection): 1.51 ± 0.06 % dose/g
Biodistribution: Skin ([1]; 2 min post injection): 2.55 ± 0.58 % dose/g
Biodistribution: Spleen ([1]; 2 min post injection): 2.03 ± 0.13 % dose/g
bone to blood ratio ([1]; 30 min): 20
bone to muscle ratio ([1]; 30 min): 68
Biodistribution: Blood ([1]; 30 min (0.5 hr) post injection): 0.83 ± 0.04 % dose/g
Biodistribution: Bone ([1]; 30 min (0.5 hr) post injection): 16.6 ± 1.37 % dose/g
Biodistribution: Brain ([1]; 30 min (0.5 hr) post injection): 0.03 ± 0.01 % dose/g
Biodistribution: Heart ([1]; 30 min (0.5 hr) post injection): 0.62 ± 0.04 % dose/g
Biodistribution: Kidney ([1]; 30 min (0.5 hr) post injection): 3.21 ± 1.59 % dose/g
Biodistribution: Liver ([1]; 30 min (0.5 hr) post injection): 1.20 ± 0.10 % dose/g
Biodistribution: Lung ([1]; 30 min (0.5 hr) post injection): 1.31 ± 0.29 % dose/g
Biodistribution: Muscle ([1]; 30 min (0.5 hr) post injection): 0.24 ± 0.03 % dose/g
Biodistribution: Pancreas ([1]; 30 min (0.5 hr) post injection): 0.24 ± 0.02 % dose/g
Biodistribution: Skin ([1]; 30 min (0.5 hr) post injection): 0.60 ± 0.02 % dose/g
Biodistribution: Spleen ([1]; 30 min (0.5 hr) post injection): 0.75 ± 0.22 % dose/g
bone to blood ratio ([1]; 60 min): 50
bone to muscle ratio ([1]; 60 min): 147
Biodistribution: Blood ([1]; 60 min (1 hr) post injection): 0.39 ± 0.06 % dose/g
Biodistribution: Bone ([1]; 60 min (1 hr) post injection): 19.4 ± 2.05 % dose/g
Biodistribution: Brain ([1]; 60 min (1 hr) post injection): 0.02 ± 0.01 % dose/g
Biodistribution: Heart ([1]; 60 min (1 hr) post injection): 0.37 ± 0.02 % dose/g
Biodistribution: Kidney ([1]; 60 min (1 hr) post injection): 2.65 ± 0.44 % dose/g
Biodistribution: Liver ([1]; 60 min (1 hr) post injection): 1.15 ± 0.13 % dose/g
Biodistribution: Lung ([1]; 60 min (1 hr) post injection): 0.96 ± 0.05 % dose/g
Biodistribution: Muscle ([1]; 60 min (1 hr) post injection): 0.13 ± 0.01 % dose/g
Biodistribution: Pancreas ([1]; 60 min (1 hr) post injection): 0.11 ± 0.01 % dose/g
Biodistribution: Skin ([1]; 60 min (1 hr) post injection): 0.26 ± 0.04 % dose/g
Biodistribution: Spleen ([1]; 60 min (1 hr) post injection): 0.66 ± 0.15 % dose/g
bone to blood ratio ([1]; 120 min): 82
bone to muscle ratio ([1]; 120 min): 197
Biodistribution: Blood ([1]; 120 min post injection): 0.21 ± 0.06 % dose/g
Biodistribution: Bone ([1]; 120 min post injection): 17.1 ± 3.70 % dose/g
Biodistribution: Brain ([1]; 120 min post injection): 0.02 ± 0.01 % dose/g
Biodistribution: Heart ([1]; 120 min post injection): 0.28 ± 0.04 % dose/g
Biodistribution: Kidney ([1]; 120 min post injection): 2.71 ± 0.17 % dose/g
Biodistribution: Liver ([1]; 120 min post injection): 1.22 ± 0.07 % dose/g
Biodistribution: Lung ([1]; 120 min post injection): 0.86 ± 0.03 % dose/g
Biodistribution: Muscle ([1]; 120 min post injection): 0.09 ± 0.01 % dose/g
Biodistribution: Pancreas ([1]; 120 min post injection): 0.08 ± 0.01 % dose/g
Biodistribution: Skin ([1]; 120 min post injection): 0.18 ± 0.01 % dose/g
Biodistribution: Spleen ([1]; 120 min post injection): 0.53 ± 0.04 % dose/g
Hydroxyapatite Binding (%) [2]: 91.7 ± 5.6%
